Earlier results in US20040204435A1, “Alternating treatment with topoisomerase I and topoisomerase II inhibitors” (priority 2003, published 2004).

Experiments:
[1] = for clinical effectiveness: cancer patients
[2] = humans, plasma
[3] = mouse plasma
[4] = carboxylate versus CPT (lactone)
[5] = not given; remark: listed apart in the source

Structure (SMILES) | effect on human tumor xenografts in nude mice (human tumor xenografts) | clinical effectiveness [1] | solubility in water | other results
CC[C@@]1(O)C(=O)OCc2c1cc1n(c2=O)Cc2cc3c(N)cccc3nc2-1 [9-aminocamptothecin] | completely eradicate | insufficiently effective | – | –
CC[C@@]1(O)C(=O)OCc2c1cc1n(c2=O)Cc2cc3c([N+](=O)[O-])cccc3nc2-1 [9NC, 9-nitrocamptothecin] | completely eradicate | less effective against human pancreas tumors in humans than against human cancer xenografts in nude mice | – | drug circulating as lactone [2]: 2-5%; administered dose circulating as active lactone form [3]: Up to 50%
CCC(O)(C(=O)O)c1cc2n(c(=O)c1CO)Cc1cc3ccccc3nc1-2 (stereo not shown) [CPT carboxylate] | – | – | soluble | anticancer activity relative to CPT [4]: ~10%
CC[C@@]1(O)C(=O)OCc2c1cc1n(c2=O)Cc2cc3ccccc3nc2-1 [CPT lactone] | – | – | insoluble | –
CC[C@@]1(O)C(=O)OCc2c1cc1n(c2=O)Cc2cc3ccccc3nc2-1 [CPT, Camptothecin] | completely eradicate | much less effective in cancer patients than in mice | – | dose-limiting toxicity ([1]; clinical trials (9NC: phase I-II)): diarrhea
CCc1c2c(nc3ccc(OC(=O)N4CCC(N5CCCCC5)CC4)cc13)-c1cc3c(c(=O)n1C2)COC(=O)[C@]3(O)CC [Camptosar, irinotecan] | – | – | water soluble | –
CC[C@@]1(O)C(=O)OCc2c1cc1n(c2=O)Cc2cc3c(CN(C)C)c(O)ccc3nc2-1 [Topotecan] | – | – | water soluble | –
CC[C@@](O)(C(=O)[O-])c1cc2n(c(=O)c1CO)Cc1cc3ccccc3nc1-2.[Na+] [sodium salt of CPT] | – | – | – | toxicities ([5]; in vivo): myelosuppression, diarrhea and cystitis; clinical benefit ([5]; phase I and II trials 1970-1972): no clinical benefit
